Experiment [1] deals with Propionic Acidemia (PA) primary fibroblasts GM00371. Put plainly: Mitochondrial respiration, XFe96 Extracellular Flux Analyzer (OCR/ECAR), PA fibroblasts GM00371. The format is cell-based. Conditions: Homo sapiens, Fibroblast, read-out: Increase in Maximal Respiratory Capacity AUC.
Experiment [2] concerns Bronchial epithelial cells co-cultured with dermal fibroblast (BF4T system). In words: BioMAP BF4T system (TNFα and IL-4). Conditions: Homo sapiens, 24 h; 10 uM; procedure of Example 830; read-out: % increase in VCAM-1. In kind it is cell-based, human.
For experiment [3], the system named is Peripheral blood mononuclear cells co-cultured with B-cells (BT system). In words: cells. Conditions: Homo sapiens, 72 h, read-out: % increase in sIL-6.
Experiment [4] has as its system Leigh Syndrome (LS) primary fibroblasts GM03672. In words: NADP+/NADPH (NADP/NADPH-Glo), Leigh fibroblasts GM03672. Conditions: Homo sapiens, Fibroblast, 24h, read-out: Increase in Total NADP+ + NADPH. The format is cell-based. The protocol: Primary adherent fibroblasts were cultured in minimum essential medium (MEM) (Gibco, 25030081) supplemented with 2 mM L-Glutamine (Gibco, 25030081), 15% fetal bovine serum (FBS) (Gibco, 26400044) and 1% penicillin/streptomycin (Gibco, 5140122) at 37° C. and 5% CO2. Cells were collected for either passaging or experiment at ˜70-80% confluence. Cells were obtained by trypsinization and seeded in cell culture microplates either white plate (Thermo Fisher Scientific, 152028) for luminescent measurement or black plate (Thermo Fisher Scientific, 165305) for fluorescent based read out for different assays listed below. Cells were obtained by trypsinization and […] were seeded and allowed to adhere for 16-18 hours to have confluency around 70-80% in the cell well with culture media. After 24 hours prior to measurements (37° C., 5% CO2) media was changed to Dulbecco's Modified Eagle Medium (DMEM, Agilent Seahorse cat #103575-100) with the appropriate supplements as stated below.
Primary fibroblasts assayed were Propionic Acidemia (PA) (GM03590 Coriell Institute for Medical Research, Tsi 6337 Trans-Hit Bio), Methylmalonic Acidemia (MMA) (Tsi 5224 Trans-Hit Bio), Subnormal activation of pyruvate dehydrogenase complex (PDH) (GM01503 Coriell Institute for Medical Research), Very long-chain acyl-CoA dehydrogenase (VLCAD) (GM17475), Leigh Syndrome (LS) (GM03672, GM13411 Coriell Institute for Medical Research), Pyruvate Carboxylase Deficiency (PC) (GM00444 Coriell Institute for Medical Research). 10 μM of Compounds were added for 2 hours in PA, MMA lines and for 24h for the other fibroblast lines.
Assay was performed according to manufacturer instructions (NADP+/NADPH-Glo Assay Promega, G9082). Assay required a plate for total measurement of NADP+/NADPH and a plate for individual measurement of NADP+ or NADPH. For every assay a 12-point standard curve is prepared ranging from 400 nM to 0.625 nM. Media is removed and replaced with 50 μl of PBS for both assays.
For individual NADP+/NADPH measurements, 50 μl of 1% DTAB (Sigma, D5047) (cell lysis reagent) in 0.2N NaOH was added to the plates and 100 μl of lysate was split into two plates with 50 μl each from which ratio of NADP/NADPH can be calculated. 25 μl of 0.4N HCl were added to the NADP+ plates and both NADP+ and NADPH plates were heated at 60° C. for 15 minutes. The acid and heat treatment destroyed NADPH allowing individual NADP+ measurements while heating in basic conditions destroys NADP+ allowing individual NADPH measurement. After 15 minutes plates were allowed to come to room temperature and Trizma base (Sigma, T1699) was added to the NADP+ plates to neutralize the acid and HCl Trizma hydrochloride (Sigma, T2694) was added to the NADPH plates. The NADNADPH glo reagent was prepared by adding 125 μl of NAD cycling substrate, 125 μl of reductase, 125 μl of reductase substrate, 125 μl NAD cycling enzyme to a total of the 25 ml of NAD GLO reagent. 1:1 ratio of total volume of reagent was added to the individual NADP+, NADPH measurements (total 100 μl) and 50 μl were added for the total NAD/NADPH measurements. Luminescence was measured for 30-60 minutes within the linear range.
A total dead cell count was performed as described in Example 817 and only alive cells were used for analysis.

Experiment [5] concerns Peripheral blood mononuclear cells co-cultured with venular endothelial cells (HUVEC) (LPS system). In words: BioMAP LPS system. The format is cell-based, human. Conditions: procedure of Example 827.
The subject of experiment [6] is Venular Endothelial cells (HUVEC) (4H system). Put plainly: BioMAP 4H system (IL-4 and histamine). Conditions: 1 uM, procedure of Example 826. The format is cell-based, human.
The test system of experiment [7] is Dermal fibroblasts (HDF3CGF system). In words: BioMAP HDF3CGF system (IL-1β, TNFα, IFNγ, EGF, bFGF, PDGF-BB). The format is cell-based, human. To be noted: 10 uM; procedure of Example 833.
The subject of experiment [8] is Peripheral blood mononuclear cells co-cultured with B-cells (BT system). Conditions: 1 uM; procedure of Example 829.
The subject of experiment [9] is primary fibroblasts (healthy controls and PA, MMA, BCKDK, PDH, VLCAD, LS, PC, GA, VLCFA, KSS, FXN, HD). In words: Measurement of ROS (H2DCFDA) in primary fibroblasts. In kind it is cell-based, human. To be noted: Homo sapiens, Fibroblast; HD GM21756; procedure Example 812; Assay Condition C; read-out: Decreased ROS by at least 30%. The essentials: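 Patient and healthy-control primary fibroblasts switched to supplemented DMEM 24 h before assay, then treated with compound (10 μM) plus H2DCFDA (22 μM) for 2 h (PA, MMA lines) or 24 h (other lines). Kinetic fluorescence at 492/527 nm over 60 min; only live cells analysed.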

Like-named read-outs stand apart in the source and are kept apart here. A value given as a limit tells only on which side of the number the result lay.

`CC(C)(CO)[C@@H](O)C(=O)NCCC(=O)NCCSC(CC(=O)O)C(=O)O` (stereo partly drawn) [Compound 46, 2-[(2-[3-[(2R)-2,4-dihydroxy-3,3-dimethylbutanamido]propanamido]ethyl)sulfanyl]butanedioic acid]: the activation at 50 µM in experiment [1] (assay condition C (10 mM glucose, 10% FBS), 50 μM) was ≥ 10%. Further, the activation at 10 µM in experiment [2] was ≥ 10%; in experiment [3], ≥ 10%; in experiment [4] (Leigh GM03672 P8, assay condition B (1 mM glucose, 2 mM L-glutamine, 1 mM pyruvate, 10% FBS)), ≥ 10%; in experiment [5] (Homo sapiens, HUVEC, 24 h, 10 uM, read-out: % increase in sTNFα) it was ≥ 10%. For the same compound, in experiment [5] (1 uM), the “% increase in sPGE2” value is recorded as ≥10%. For the same compound, the “% increase in E-Selectin” value in experiment [6] is given as ≥10%. Moreover, the inhibition at 1 µM in experiment [6] (Homo sapiens, HUVEC, 24 h, read-out: % decrease in E-Selectin) is ≥ 10%. The “% decrease in Collagen I” value in experiment [7] is recorded as ≥10%. The “% decrease in B-cell proliferation” value in [8] is given as ≥20%. For the same compound, in [8], the “% decrease in sIL-2” value is given as ≥20%. For the same compound, the “% decrease in sTNFα” value in experiment [8] was ≥20%.

For the compound `CCC(=O)SCCNC(=O)CCNC(=O)[C@H](O)C(C)(C)CO` [Compound 398, (2R)-2,4-dihydroxy-3,3-dimethyl-N-(2-[[2-(propanoylsulfanyl)ethyl]carbamoyl]ethyl)butanamide], the activation at 10 µM in experiment [1] (assay condition D (1 mM glucose, 10% FBS), 10 μM) is ≥ 10%; in [4] (Leigh GM03672 P9, assay condition A (10 mM glucose, 2 mM L-glutamine, 1 mM pyruvate, 10% FBS)) it was ≥ 10%. Also, the inhibition at 10 µM in experiment [9] is ≥ 30%.

These data come from patent publication US20230107216A1, “PANTETHEINE DERIVATIVES AND USES THEREOF” (Comet Therapeutics, Inc., priority 2018, published 2023).
